These are literature values, as cited in patent EP0523845A2, “New benzodiazepine analogs” (MERCK & CO. INC., priority 1991, dated 1993).

For this data set the following is noted: cited from Deschodt-Lanckman et al., Reg. Pept. 2, 15 (1981).

Consider `CSCC[C@H](NC(=O)[C@H](Cc1ccc(OS(=O)(=O)O)cc1)NC(=O)[C@@H](N)CC(=O)O)C(=O)NCC(=O)N[C@@H](Cc1c[nH]c2ccccc12)C(=O)N[C@@H](CCSC)C(=O)N[C@@H](CC(=O)O)C(=O)N[C@@H](Cc1ccccc1)C(N)=O` [CCK-8s, H-Asp-Tyr(S03H)-Met-Gly-Trp-Met-Asp-Phe-NH2], for which the half-life result is reported as “less than 1 hour”.
